We go through twelve compounds from ChEMBL document CHEMBL1156070, “Functional and biochemical analysis of a key series of ramoplanin analogues” (Bioorg Med Chem Lett, 2009).

In brackets after ≈: the same amount, converted by molar mass. Activity calls are given as the source filed them.

One assay has as its system Staphylococcus aureus. Put plainly: Antibacterial activity against Staphylococcus aureus ATCC 29213 after 24 hrs by microdilution assay. The format is functional. Particulars: ATCC 29213, 24 h. (Dilution methods test growth across graded concentrations, often in twofold steps.)
Assay [1] in a line: Binding affinity to synthetic lipid 2 analogue fl-LPII.
The next assay has as its system Escherichia coli. In words: Inhibition of Escherichia coli PBP1b-mediated lipid 2 incorporation into peptidoglycon at 6 uM.

As a reminder, the MIC is the smallest concentration in the dilution series that meets the test's criterion for growth inhibition. For orientation: Kd means the free concentration of one partner at which half of the binding sites on the other are occupied at equilibrium, for simple one-to-one binding. `CC(C)C/C=C/C=C/C(=O)N[C@@H](CC(N)=O)C(=O)N[C@H]1CNC(=O)[C@H](c2ccc(O)c(Cl)c2)NC(=O)[C@@H](C)NC(=O)[C@H](CC(C)C)NC(=O)CNC(=O)[C@H](c2ccc(O)cc2)NC(=O)[C@@H]([C@@H](C)O)NC(=O)[C@H](c2ccc(O)cc2)NC(=O)[C@@H](CCCN)NC(=O)[C@H](Cc2ccccc2)NC(=O)[C@H](C)NC(=O)[C@@H](c2ccc(O)cc2)NC(=O)[C@H](c2ccc(O)cc2)NC(=O)[C@@H]([C@@H](C)O)NC(=O)[C@@H](CCCN)NC(=O)[C@@H](c2ccc(O)cc2)NC1=O`: in the assay on Staphylococcus aureus, the MIC was 38 µg/mL (≈ 17.6 µM). In assay [1], this compound registered a Kd of 8700 nM. Moreover, in the assay on Escherichia coli, the inhibition entry was “inactive”.
For `CC(C)C/C=C/C=C/C(=O)N[C@@H](CC(N)=O)C(=O)N[C@H]1CNC(=O)[C@H](c2ccc(O)c(Cl)c2)NC(=O)[C@@H](C)NC(=O)[C@H](CC(C)C)NC(=O)CNC(=O)[C@H](c2ccc(O)cc2)NC(=O)[C@@H]([C@@H](C)O)NC(=O)[C@H](c2ccc(O)cc2)NC(=O)[C@@H](CCCN)NC(=O)[C@H](Cc2ccccc2)NC(=O)[C@H]([C@H](C)O)NC(=O)[C@@H](c2ccc(O)cc2)NC(=O)[C@H](c2ccc(O)cc2)NC(=O)[C@@H](C)NC(=O)[C@@H](CCCN)NC(=O)[C@@H](c2ccc(O)cc2)NC1=O`, in that order: 2.4 µg/mL (≈ 1.11 µM), 447 nM and “Active”.
`CC(C)C/C=C/C=C/C(=O)N[C@@H](CC(N)=O)C(=O)N[C@@H]1C(=O)N[C@H](c2ccc(O)cc2)C(=O)N[C@H](CCCN)C(=O)N[C@H]([C@@H](C)O)C(=O)N[C@@H](c2ccc(O)cc2)C(=O)N[C@H](c2ccc(O)cc2)C(=O)N[C@@H]([C@H](C)O)C(=O)N[C@@H](Cc2ccccc2)C(=O)N[C@H](CCCN)C(=O)N[C@@H](c2ccc(O)cc2)C(=O)N[C@H]([C@@H](C)O)C(=O)N[C@@H](c2ccc(O)cc2)C(=O)NCC(=O)N[C@@H](CC(C)C)C(=O)N[C@H](C)C(=O)N[C@@H](c2ccc(O)c(Cl)c2)C(=O)O[C@@H]1C(N)=O` [RAMOPLANIN AGLYCON]: the MIC against Staphylococcus aureus is 0.4 µg/mL (≈ 0.179 µM). The same compound displayed a Kd in assay [1] of 40 nM. Also, the inhibition entry with Escherichia coli is “Active”.
For `CC(C)C/C=C/C=C/C(=O)N[C@@H](CC(N)=O)C(=O)N[C@H]1CNC(=O)[C@H](c2ccc(O)c(Cl)c2)NC(=O)[C@@H](C)NC(=O)[C@H](CC(C)C)NC(=O)CNC(=O)[C@H](c2ccc(O)cc2)NC(=O)[C@@H]([C@@H](C)O)NC(=O)[C@H](c2ccc(O)cc2)NC(=O)C(C)NC(=O)[C@H](Cc2ccccc2)NC(=O)[C@H]([C@H](C)O)NC(=O)[C@@H](c2ccc(O)cc2)NC(=O)[C@H](c2ccc(O)cc2)NC(=O)[C@@H]([C@@H](C)O)NC(=O)[C@@H](CCCN)NC(=O)[C@@H](c2ccc(O)cc2)NC1=O` (single isomer, unassigned), in that order: more than 50 µg/mL, 6500 nM and “inactive”.
`CC(C)C/C=C/C=C/C(=O)N[C@@H](CC(N)=O)C(=O)N[C@H]1CNC(=O)[C@H](c2ccc(O)c(Cl)c2)NC(=O)[C@@H](C)NC(=O)[C@H](CC(C)C)NC(=O)CNC(=O)[C@H](c2ccc(O)cc2)NC(=O)[C@@H]([C@@H](C)O)NC(=O)[C@H](c2ccc(O)cc2)NC(=O)[C@@H](CCCN)NC(=O)[C@H](Cc2ccccc2)NC(=O)[C@H]([C@H](C)O)NC(=O)[C@@H](c2ccc(O)cc2)NC(=O)[C@H](c2ccc(O)cc2)NC(=O)[C@@H]([C@@H](C)O)NC(=O)[C@@H](CCCN)NC(=O)[C@H](C)NC1=O`: the lowest concentration to inhibit growth in the assay with Staphylococcus aureus (MIC) was 13 µg/mL (≈ 6.17 µM). The inhibition entry in the assay with Escherichia coli is “Active”.
In the assay on Staphylococcus aureus, `CC(C)C/C=C/C=C/C(=O)N[C@@H](CC(N)=O)C(=O)N[C@H]1CNC(=O)[C@H](c2ccc(O)c(Cl)c2)NC(=O)[C@@H](C)NC(=O)[C@H](CC(C)C)NC(=O)CNC(=O)[C@H](c2ccc(O)cc2)NC(=O)[C@@H]([C@@H](C)O)NC(=O)[C@H](c2ccc(O)cc2)NC(=O)[C@@H](CCCN)NC(=O)[C@H](Cc2ccccc2)NC(=O)[C@H]([C@H](C)O)NC(=O)[C@@H](c2ccc(O)cc2)NC(=O)[C@H](c2ccc(O)cc2)NC(=O)[C@@H]([C@@H](C)O)NC(=O)[C@@H](CCCN)NC(=O)[C@@H](c2ccc(O)cc2)NC1=O` had a minimum inhibitory concentration (MIC) of 0.4 µg/mL (≈ 0.183 µM). The same compound had an equilibrium dissociation constant (Kd) in assay [1] of 33 nM. The inhibition entry in the assay with Escherichia coli was “Active”.
On the same counts, the results for `CC(C)C/C=C/C=C/C(=O)N[C@@H](CC(N)=O)C(=O)N[C@H]1CNC(=O)[C@H](c2ccc(O)c(Cl)c2)NC(=O)[C@@H](C)NC(=O)[C@H](CC(C)C)NC(=O)CNC(=O)[C@H](c2ccc(O)cc2)NC(=O)[C@@H]([C@@H](C)O)NC(=O)[C@H](C)NC(=O)[C@@H](CCCN)NC(=O)[C@H](Cc2ccccc2)NC(=O)[C@H]([C@H](C)O)NC(=O)[C@@H](c2ccc(O)cc2)NC(=O)[C@H](c2ccc(O)cc2)NC(=O)[C@@H]([C@@H](C)O)NC(=O)[C@@H](CCCN)NC(=O)[C@@H](c2ccc(O)cc2)NC1=O` are 6.3 µg/mL (≈ 2.99 µM), 6300 nM and “inactive”.
Take `CC(C)C/C=C/C=C/C(=O)N[C@@H](CC(N)=O)C(=O)N[C@H]1CNC(=O)[C@H](c2ccc(O)c(Cl)c2)NC(=O)[C@@H](C)NC(=O)[C@H](CC(C)C)NC(=O)CNC(=O)[C@H](c2ccc(O)cc2)NC(=O)[C@@H]([C@@H](C)O)NC(=O)[C@H](c2ccc(O)cc2)NC(=O)[C@@H](CCCN)NC(=O)[C@H](Cc2ccccc2)NC(=O)[C@H]([C@H](C)O)NC(=O)[C@@H](c2ccc(O)cc2)NC(=O)[C@H](c2ccc(O)cc2)NC(=O)[C@@H]([C@@H](C)O)NC(=O)[C@H](C)NC(=O)[C@@H](c2ccc(O)cc2)NC1=O`: it took 31 µg/mL (≈ 14.5 µM) to inhibit growth against Staphylococcus aureus (MIC). Further, binding in assay [1] was characterised by a dissociation constant (Kd) of 4300 nM. Further, the inhibition result with Escherichia coli was “inactive”.
In the case of `CC(C)C/C=C/C=C/C(=O)N[C@@H](CC(N)=O)C(=O)N[C@H]1CNC(=O)[C@H](c2ccc(O)c(Cl)c2)NC(=O)[C@@H](C)NC(=O)[C@H](CC(C)C)NC(=O)CNC(=O)[C@H](c2ccc(O)cc2)NC(=O)[C@@H]([C@@H](C)O)NC(=O)[C@H](c2ccc(O)cc2)NC(=O)[C@@H](CCCN)NC(=O)C(C)NC(=O)[C@H]([C@H](C)O)NC(=O)[C@@H](c2ccc(O)cc2)NC(=O)[C@H](c2ccc(O)cc2)NC(=O)[C@@H]([C@@H](C)O)NC(=O)[C@@H](CCCN)NC(=O)[C@@H](c2ccc(O)cc2)NC1=O` (single isomer, unassigned), it took 1.6 µg/mL (≈ 0.758 µM) to inhibit growth in the assay on Staphylococcus aureus (MIC). In addition, binding in assay [1] was characterised by a dissociation constant (Kd) of 383 nM. In the assay on Escherichia coli, the inhibition entry is “Active”.
For `CC(C)C/C=C/C=C/C(=O)N[C@@H](CC(N)=O)C(=O)N[C@H]1CNC(=O)[C@H](c2ccc(O)c(Cl)c2)NC(=O)[C@@H](C)NC(=O)[C@H](CC(C)C)NC(=O)CNC(=O)[C@H](c2ccc(O)cc2)NC(=O)[C@H](C)NC(=O)[C@H](c2ccc(O)cc2)NC(=O)[C@@H](CCCN)NC(=O)[C@H](Cc2ccccc2)NC(=O)[C@H]([C@H](C)O)NC(=O)[C@@H](c2ccc(O)cc2)NC(=O)[C@H](c2ccc(O)cc2)NC(=O)[C@@H]([C@@H](C)O)NC(=O)[C@@H](CCCN)NC(=O)[C@@H](c2ccc(O)cc2)NC1=O`, in that order: 33 µg/mL (≈ 15.3 µM), 5400 nM and “inactive”.
For the compound `CC(C)C/C=C/C=C/C(=O)N[C@@H](CC(N)=O)C(=O)N[C@H]1CNC(=O)[C@H](c2ccc(O)c(Cl)c2)NC(=O)[C@@H](C)NC(=O)[C@H](CC(C)C)NC(=O)CNC(=O)[C@H](c2ccc(O)cc2)NC(=O)[C@@H]([C@@H](C)O)NC(=O)[C@H](c2ccc(O)cc2)NC(=O)[C@@H](CCCN)NC(=O)[C@H](Cc2ccccc2)NC(=O)[C@H]([C@H](C)O)NC(=O)[C@H](C)NC(=O)[C@H](c2ccc(O)cc2)NC(=O)[C@@H]([C@@H](C)O)NC(=O)[C@@H](CCCN)NC(=O)[C@@H](c2ccc(O)cc2)NC1=O`, the MIC against Staphylococcus aureus was 13 µg/mL (≈ 6.17 µM). The same compound displayed an equilibrium dissociation constant (Kd) in assay [1] of 1200 nM. Further, the inhibition result with Escherichia coli is “inactive”.
`CC(C)C/C=C/C=C/C(=O)N[C@@H](CC(N)=O)C(=O)N[C@H]1CNC(=O)[C@H](c2ccc(O)c(Cl)c2)NC(=O)[C@@H](C)NC(=O)[C@H](CC(C)C)NC(=O)CNC(=O)[C@H](c2ccc(O)cc2)NC(=O)[C@@H]([C@@H](C)O)NC(=O)[C@H](c2ccc(O)cc2)NC(=O)[C@@H](CCCN)NC(=O)[C@H](Cc2ccccc2)NC(=O)[C@H]([C@H](C)O)NC(=O)[C@@H](c2ccc(O)cc2)NC(=O)[C@H](C)NC(=O)[C@@H]([C@@H](C)O)NC(=O)[C@@H](CCCN)NC(=O)[C@@H](c2ccc(O)cc2)NC1=O` showed an MIC in the assay on Staphylococcus aureus of 1.6 µg/mL (≈ 0.759 µM). The same compound came in with a Kd in assay [1] of 378 nM. In addition, the inhibition entry in the assay with Escherichia coli is “Active”.
